How the values were obtained:
HIV-1 BA-L [1] = assay: Inhibitory effect on HIV-1 infection to MAGI-CCR5 cell; format: cell-based; details: 2 days
Description: The plasmid where β-galactosidase gene was ligated downstream of HIV-1 LTR was introduced into CD4 positive HeLa cell, to which human CCR5 was further introduced to obtain transformant MAGI-CCR5. By using said transformant MAGI-CCR5, degree of HIV-1 infection was calculated from β-galactosidase activity (blue color due to decomposition of 5-bromo-4-chloro-3-indolyl-β-D-galactopyranoside). Specifically, MAGI-CCR5 cells were suspended in DMEM medium containing 10% serum to prepare 5×10^4 cells/ml suspension. To each well of 96 well plate was inoculated 200 μl of the suspension, and the cells were cultivated at 37° C. overnight. The medium was removed by means of suction, and to the residue was added 100 μl of the above medium containing 1.6 μM of Test Compound 96 or 0.064 μM of Test Compound 248 and 100 μl of the above medium containing 300PFU of HIV-1 BA-L cells. The cells were cultivated at 37° C. for 2 days. The medium was removed by means of suction. To the residue was added 200 μl of cell fixative (PBS containing 1% formaldehyde and 0.2% glutaraldehyde), and the mixture was allowed to stand at room temperature for 5 minutes and washed twice with PBS. […] The number of blue cells was counted by microscope and defined as the number of cells infected with HIV-1.

HIV-1 BA-L [2] = assay: Inhibitory effect on HIV-1 infection to human PBMC; format: cell-based; details: human PBMC stimulated with PHA and IL-2, 7 days
Description: From normal person human peripheral blood mononuclear cells (PBMC) were separated, and the cells were stimulated with 10 μg/ml of PHA (Phytohemaglutinin) and 20 U/ml of interleukin-2 (IL-2) for 3 days. The cells were suspended in RPMI-1640 medium containing 20% serum to prepare 1×10^6/ml suspension. To the suspension were infected HIV-1 BA-L cells (20 ng as an amount of p24 antigen), and viruses were absorbed at 37° C. for 2 hours. The cells were washed and suspended in RPMI-1640 medium containing 20% serum and IL-2 20 U/ml to prepare 1×10^5/ml suspension. To the PBMC suspension was added the same amount of a solution which contains 2.0 μM of Test Compound 96 or 0.32 μM of Test Compound 248, and the cells were cultivated at 37° C. for 7 days in carbon dioxide gas incubator. The amount of p24 antigen in supernatant of the cultivated medium was determined by enzyme-linked immunosorbent assay (ELISA) and defined as degree of HIV-1 infection.

human CCR5 = biological target: T1, human CCR5 (Homo sapiens, UniProt P51681); assay: CCR5 antagonistic activity ([125I]-RANTES binding to CHO/CCR5 cells); details: Test Compound 1 μM, 100 pM [125I]-RANTES, room temperature 30 minutes, read-out: Inhibition Rate (%) to CCR5 binding
T1 construct: expressed in transfected cells; host or cells: CHO-K1 cells, geneticin-resistant clone CHO/CCR5
T1 sequence (P51681 whole entry): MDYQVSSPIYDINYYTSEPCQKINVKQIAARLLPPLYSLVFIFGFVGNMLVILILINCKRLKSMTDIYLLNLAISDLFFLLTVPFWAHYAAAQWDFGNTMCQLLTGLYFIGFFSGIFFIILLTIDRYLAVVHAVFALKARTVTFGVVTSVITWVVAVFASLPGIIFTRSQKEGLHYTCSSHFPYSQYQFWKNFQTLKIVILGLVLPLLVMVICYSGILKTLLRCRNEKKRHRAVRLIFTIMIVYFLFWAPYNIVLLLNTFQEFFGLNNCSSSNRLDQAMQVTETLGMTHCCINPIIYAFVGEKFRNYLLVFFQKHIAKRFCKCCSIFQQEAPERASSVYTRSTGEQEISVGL
Description: Cloning of CCR5 gene was carried out by PCR (polymerase chain reaction) from human spleen cDNA. With using 0.5 ng of spleen cDNA (Toyobo, QUICK-Clone cDNA) as template, PCR was performed in DNA Thermal Cycler 480 (Perkin-Elmer) (reaction conditions: 30 cycles of 95° C. for 1 minute, 60° C. for 1 minute, and 75° C. for 5 minutes) by adding primer set, 5′-CAGGATCCGATG […]-3′ (25 pmol) and 5′-TCTAGATCACAAGCC CACAGATATTTCCTGCTCC-3′ (25 pmol), which were designed referring to nucleotide sequence of CCR5 gene reported by Samson et al. (Biochemistry, 35(11), 3362-3367 (1996)) and by using TaKaRa EX Taq (Takara Shuzo). The resultant PCR product was subjected to agarose gel electrophoresis to collect about 1.0 kb DNA fragment, which was subjected to Original TA Cloning Kit (Funakoshi) to carry out cloning of CCR5 gene.
The plasmid obtained in the above (1) was digested with restriction enzymes XbaI (Takara Shuzo) and BamHI (Takara Shuzo) and subjected to agarose gel electrophoresis to collect about 1.0 kb DNA fragment. The DNA fragment was mixed with plasmid pcDNA3.1 (Funakoshi) for expression in animal cells, said plasmid being digested with XbaI and BamHI, and they were ligated with DNA Ligation Kit Ver.2 (Takara Shuzo). The resulting plasmid was subjected to transformation of competent cell of E. coli JM109 (Takara Shuzo) to obtain plasmid pCKR5.
CHO-K1 cells were grown in 750 ml of tissue culture flask (Becton Dickinson) using Ham's F12 medium (Nihon Pharmaceutical) containing 10% fetal calf serum (Life Tech Oriental) and took off with 0.5 g/L trypsin-0.2 g/L EDTA (Life Tech Oriental). The cells were washed with PBS (Life Tech Oriental), centrifuged (1000 rpm, 5 minutes), and suspended in PBS. With using Gene Pulser (Bio-Rad Laboratories), DNA was introduced into the cells under the conditions shown below. That is, to the cuvette of 0.4 cm gap were added 8×10^6 cells and 10 μg of plasmid pCKR5 for expression of human CCR5, and electroporation was carried out under 0.25 kV of voltage and 960 μF of capacitance. The cells were transferred into Ham's F12 medium (Nihon Pharmaceutical) containing 10% fetal calf serum, and cultivated for 24 hours. The cells were again took off and centrifuged, and suspended in Ham's F12 medium (Nihon Pharmaceutical) containing 10% fetal calf serum and 500 μg/ml of geneticin (Life Tech Oriental). The suspension was diluted to give 1 cells/ml of the suspension, which was inoculated on 96 well plate (Becton Dickinson) to give geneticin resistant cells. The resulting geneticin resistant cells were cultivated in 96 well plate (Becton Dickinson), and cells expressing CCR5 were selected from the geneticin resistant cells. That is, in assay buffer (Ham's F12 medium containing 0.5% BSA and 20 mM HEPES (Wako Pure Chemical, pH7.2) to which was added 200 pM of [^125I]-RANTES (Amersham) as ligand, binding reaction was carried out at room temperature for 40 minutes, and the buffer was washed with cooled PBS. To the buffer was added 50 μl/well of 1M NaOH, and the mixture was stirred. Radioactivity was determined with γ-counter to select CHO/CCR5 cells which specifically bind to the ligand.
The CHO/CCR5 were inoculated on 96 well microplate (5×10^4 cells/well) and cultivated for 24 hours. […] Radio-activity was determined with Top-Count Micro Scintillation Counter (Packard Instrument, Inc.). […]

`Cc1ccc(-c2ccc3c(c2)C=C(C(=O)Nc2ccc(C[N+]4(C)CCCCC4)cc2)CCO3)cc1` [Compound 96, 1—(N-(7—(4-methylphenyl)-2,3-dihydro-1-benzoxepin-4-carbonyl)-4-aminobenzyl)-1-methylpiperidinium iodide] was tested, and the “inhibition on HIV-1 infection (number of blue cells)” value (HIV-1 BA-L [1]; 100 μl medium containing 1.6 μM of Test Compound plus 100 μl medium with 300PFU HIV-1 BA-L) was 92% and the “inhibition on HIV-1 infection (p24 antigen in supernatant, ELISA)” value (HIV-1 BA-L [2]; same amount of a solution containing 2.0 μM of Test Compound added) was 96%.

For `Cc1ccc(-c2ccc3c(c2)C=C(C(=O)Nc2ccc(C[N+](C)(C)C4CCOCC4)cc2)CCC3)cc1` [Compound 248, N,N-dimethyl-N-(4-(((2-(4-methylphenyl)-6,7-dihydro-5H-benzocyclohepten-8-yl)carbonyl)amino)benzyl)-N-(4-tetrahydropyranyl)ammonium chloride], the “inhibition on HIV-1 infection (number of blue cells)” value (HIV-1 BA-L [1]; 100 μl medium containing 0.064 μM of Test Compound plus 100 μl medium with 300PFU HIV-1 BA-L) was 100%, the inhibition at 1 µM (human CCR5) was 99% and the “inhibition on HIV-1 infection (p24 antigen in supernatant, ELISA)” value (HIV-1 BA-L [2]; same amount of a solution containing 0.32 μM of Test Compound added) was 74%.

Reference: US6413947B1, “Anilide derivative, production and use thereof” (Takeda Chemical Industries, Ltd., priority 1997, dated 2002)
